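These data come from cells grown in 96-well plates and exposed to compound for 48 hours at five concentrations. GI50 = concentration required for 50% inhibition of growth.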 Activity calls are given as the source filed them. Cut-off read from the data, not from the text of the source: active = GI50 up to about 1.1 µM and inactive = higher.
Tests used:
Assay in all cases: growth of human tumour cells (NCI), 48 h
UO-31 = test system: UO-31
RXF 393 = test system: RXF 393
SF-295 = test system: SF-295
XF498 = test system: XF498
HCT-15 = test system: HCT-15
OVCAR-3 = test system: OVCAR-3
M14 = test system: M14
NCI-H23 = test system: NCI-H23
HOP-62 = test system: HOP-62
COLO 205 = test system: COLO 205
M19-MEL = test system: M19-MEL
Malme-3M = test system: Malme-3M
SW-620 = test system: SW-620
MOLT-4 = test system: MOLT-4
U-251 = test system: U-251
EKVX = test system: EKVX
HT-29 = test system: HT-29
SNB-75 = test system: SNB-75
UACC-62 = test system: UACC-62
OVCAR-8 = test system: OVCAR-8
KM-20L2 = test system: KM-20L2
A498 = test system: A498
TK-10 = test system: TK-10
HOP-18 = test system: HOP-18
OVCAR-4 = test system: OVCAR-4
K562 = test system: K562
LXFL 529 = test system: LXFL 529
A549 = test system: A549
CCRF-CEM = test system: CCRF-CEM
HOP-92 = test system: HOP-92
SK-MEL-28 = test system: SK-MEL-28
SK-MEL-5 = test system: SK-MEL-5
RPMI-8226 = test system: RPMI-8226
SNB-78 = test system: SNB-78
DLD-1 = test system: DLD-1
DMS-273 = test system: DMS-273
SF-268 = test system: SF-268
IGROV-1 = test system: IGROV-1
SN12C = test system: SN12C
UACC-257 = test system: UACC-257
HL-60 = test system: HL-60
HCC 2998 = test system: HCC 2998
DMS-114 = test system: DMS-114
OVCAR-5 = test system: OVCAR-5
HCT-116 = test system: HCT-116
SF-539 = test system: SF-539
NCI-H226 = test system: NCI-H226
NCI-H460 = test system: NCI-H460
KM12 = test system: KM12
SK-MEL-2 = test system: SK-MEL-2
SK-OV-3 = test system: SK-OV-3
SR = test system: SR
LOX IMVI = test system: LOX IMVI
RXF 631 = test system: RXF 631
786-0 = test system: 786-0
CAKI-1 = test system: CAKI-1
NCI-H522 = test system: NCI-H522
SNB-19 = test system: SNB-19
ACHN = test system: ACHN

With `COc1ccc(C2c3cc4c(cc3OC(O)(CO)C2C(=O)O)OCO4)cc1.COc1ccc(C2c3cc4c(cc3OC3(O)COC(=O)C23)OCO4)cc1` (stereo unspecified) the GI50 (UO-31) was 29.9 µM (inactive), the GI50 (RXF 393) was 16.9 µM (inactive) and the GI50 (SF-295) was 22.8 µM (inactive). For the same molecule, the GI50 (XF498) was 0.536 µM (active), the GI50 (HCT-15) was 17.7 µM and the GI50 (OVCAR-3) was 22.4 µM (inactive). The GI50 (M14) was 15.3 µM (inactive), the GI50 (NCI-H23) was 23.4 µM (inactive) and the GI50 (HOP-62) was 33.7 µM (inactive). For the same molecule, the GI50 (COLO 205) was 10.3 µM (inactive), the GI50 (M19-MEL) was 4.6 µM (inactive) and the GI50 (Malme-3M) was 26.9 µM (inactive). For the same molecule, the GI50 (SW-620) was 18.7 µM (inactive), the GI50 (MOLT-4) was 19.1 µM (inactive) and the GI50 (U-251) was 19.8 µM (inactive). For the same molecule, the GI50 (EKVX) was 31.4 µM (inactive), the GI50 (HT-29) was 24.7 µM (inactive) and the GI50 (SNB-75) was 30.3 µM (inactive). For the same molecule, the GI50 (UACC-62) was 17.7 µM (inactive), the GI50 (OVCAR-8) was 20.5 µM (inactive) and the GI50 (KM-20L2) was 43.2 µM (inactive). For the same molecule, the GI50 (A498) was 89.3 µM (inactive), the GI50 (TK-10) was 67.6 µM (inactive) and the GI50 (HOP-18) was 50.4 µM (inactive). For the same molecule, the GI50 (OVCAR-4) was > 100 µM (inactive), the GI50 (K562) was 19.1 µM (inactive) and the GI50 (LXFL 529) was 15.6 µM (inactive). For the same molecule, the GI50 (A549) was 36.2 µM (inactive), the GI50 (CCRF-CEM) was 18.7 µM (inactive) and the GI50 (HOP-92) was 21 µM (inactive). For the same molecule, the GI50 (SK-MEL-28) was 25.2 µM (inactive), the GI50 (SK-MEL-5) was 19.8 µM (inactive) and the GI50 (RPMI-8226) was 20.4 µM (inactive). The GI50 (SNB-78) was 23.2 µM (inactive), the GI50 (DLD-1) was 21.8 µM (inactive) and the GI50 (DMS-273) was 4.14 µM (inactive). The GI50 (SF-268) was 28 µM (inactive), the GI50 (IGROV-1) was 20.4 µM (inactive) and the GI50 (SN12C) was 23.7 µM (inactive). For the same molecule, the GI50 (UACC-257) was 21.5 µM (inactive), the GI50 (HL-60) was 17.2 µM (inactive) and the GI50 (HCC 2998) was 20.2 µM (inactive). For the same molecule, the GI50 (DMS-114) was 22.2 µM (inactive), the GI50 (OVCAR-5) was 39.4 µM (inactive) and the GI50 (HCT-116) was 18.2 µM (inactive). The GI50 (SF-539) was 20.7 µM (inactive), the GI50 (NCI-H226) was 22.5 µM (inactive) and the GI50 (NCI-H460) was 19.1 µM (inactive). For the same molecule, the GI50 (KM12) was 28.2 µM (inactive), the GI50 (SK-MEL-2) was 25.9 µM (inactive) and the GI50 (SK-OV-3) was 40.1 µM (inactive). The GI50 (SR) was 19.2 µM (inactive), the GI50 (LOX IMVI) was 16.5 µM (inactive) and the GI50 (RXF 631) was 19.5 µM (inactive).

For `CN1C(=O)n2c(nc3ccccc32)C(N=[N+]=[N-])(N=[N+]=[N-])C1=O` (stereo unspecified), the GI50 (UO-31) was > 100 µM (inactive), the GI50 (786-0) was > 100 µM (inactive) and the GI50 (RXF 393) was > 100 µM (inactive). The GI50 (CAKI-1) was 35.2 µM (inactive), the GI50 (SF-295) was > 100 µM (inactive) and the GI50 (XF498) was > 100 µM (inactive). For the same molecule, the GI50 (HCT-15) was 99.1 µM, the GI50 (OVCAR-3) was > 100 µM (inactive) and the GI50 (M14) was > 100 µM (inactive). The GI50 (NCI-H23) was > 100 µM (inactive), the GI50 (HOP-62) was > 100 µM (inactive) and the GI50 (COLO 205) was > 100 µM (inactive). The GI50 (M19-MEL) was > 100 µM (inactive), the GI50 (Malme-3M) was > 100 µM (inactive) and the GI50 (SW-620) was > 100 µM (inactive). The GI50 (NCI-H522) was > 100 µM (inactive), the GI50 (MOLT-4) was > 100 µM (inactive) and the GI50 (U-251) was > 100 µM (inactive). For the same molecule, the GI50 (EKVX) was > 100 µM (inactive), the GI50 (HT-29) was > 100 µM (inactive) and the GI50 (SNB-75) was 57.3 µM (inactive). The GI50 (UACC-62) was > 100 µM (inactive), the GI50 (OVCAR-8) was > 100 µM (inactive) and the GI50 (KM-20L2) was > 100 µM (inactive). For the same molecule, the GI50 (A498) was > 100 µM (inactive), the GI50 (TK-10) was > 100 µM (inactive) and the GI50 (HOP-18) was > 100 µM (inactive). The GI50 (SNB-19) was > 100 µM (inactive), the GI50 (OVCAR-4) was > 100 µM (inactive) and the GI50 (ACHN) was > 100 µM (inactive). For the same molecule, the GI50 (K562) was > 100 µM (inactive), the GI50 (LXFL 529) was > 100 µM (inactive) and the GI50 (A549) was > 100 µM (inactive). The GI50 (CCRF-CEM) was 68.9 µM (inactive), the GI50 (HOP-92) was 86.5 µM (inactive) and the GI50 (SK-MEL-28) was > 100 µM (inactive). The GI50 (SK-MEL-5) was > 100 µM (inactive), the GI50 (RPMI-8226) was > 100 µM (inactive) and the GI50 (SNB-78) was > 100 µM (inactive). For the same molecule, the GI50 (DLD-1) was > 100 µM (inactive), the GI50 (DMS-273) was > 100 µM (inactive) and the GI50 (SF-268) was > 100 µM (inactive). The GI50 (IGROV-1) was > 100 µM (inactive), the GI50 (UACC-257) was > 100 µM (inactive) and the GI50 (HL-60) was > 100 µM (inactive). For the same molecule, the GI50 (HCC 2998) was > 100 µM (inactive), the GI50 (DMS-114) was > 100 µM (inactive) and the GI50 (OVCAR-5) was > 100 µM (inactive). For the same molecule, the GI50 (HCT-116) was > 100 µM (inactive), the GI50 (SF-539) was > 100 µM (inactive) and the GI50 (NCI-H226) was > 100 µM (inactive). For the same molecule, the GI50 (NCI-H460) was > 100 µM (inactive), the GI50 (KM12) was > 100 µM (inactive) and the GI50 (SK-MEL-2) was > 100 µM (inactive). For the same molecule, the GI50 (SK-OV-3) was > 100 µM (inactive), the GI50 (LOX IMVI) was 77.3 µM (inactive) and the GI50 (RXF 631) was > 100 µM (inactive).

Source: ChEMBL document CHEMBL1201862, “PubChem BioAssay data set” (2004)
